Experimental data taken from patent US20100249383A1, “Novel Ligand Involved In The Transmigration Of Leukocytes Across the Endothelium and Uses Therefor” (The Regents of The University of California and The Burnham …, priority 2001, published 2010).
Several values for one entry are separate records, joined by “and”; a condition that tells them apart may be missing. Identical values can stand only once.

Legend:
[1] = tested on: BSA coupled 0.3 M asialo-COO^− lung glycopeptides; experiment: Depletion of annexin I and S100 proteins from human neutrophil lysates by immobilized bovine lung glycopeptides; type: binding; conditions: for depletion from neutrophil extracts after binding to the glycopeptides: immunoblot of supernatants, FIG. 15, FIG. 16
Protocol: In these assays, extracts from activated human neutrophils were first incubated with immobilized asialo-COO^− glycopeptides, and the residual proteins in the supernatants were analyzed by immunoblots. Since the S100A8/A9 complexes are typically destroyed during SDS-PAGE (i.e., break down into monomers), the intensity of staining in immunoblots was beyond the linearity of reaction for any quantitative evaluation.
In these experiments, 96-well plates were coated with 250 ng of BSA coupled 0.3 M asialo-COO^− lung glycopeptides for 4 h at 37° C. and blocked with 3% BSA in PBS overnight. Human neutrophil extracts were sequentially incubated in each of four wells for 30 min/well at 37° C. in leukocyte activation buffer (described above), in presence or absence of 200 μM 0.3 M asialo-COO^− glycopeptides or asialo-CONHMe-glycopeptides. After incubation, the supernatants from the incubation wells were collected and protein depletion was analyzed by immunoblotting using the respective antibodies. For detection of S100A8/A9 complexes, the proteins in the supernatants were stabilized by chemical cross-linking using bis-sulfosuccinimidyl suberate (BS^3) as known in the art (See, Staros, Biochem., 21:3590 [1982]). Briefly, the cross linker was added from a fresh 2 mM stock solution to neutrophil lysates obtained as described above, to a final concentration of 200 μM, and the mixture was incubated at room temperature for 30 min. Reactions were quenched by the addition of 1 M Tris to a final concentration of 10 mM and samples were stored at −80° C., until they were assayed. Cross-linked samples were incubated with 2-mercaptoethanol prior to separation on SDS-PAGE. Since crude lysates were used in the cross-linking, it is conceivable that non-specific cross-linking could occur. Therefore, only the bands that were still strongly stained with increasing dilution of both anti-S100A8 and anti-S100A9 were identified.

[2] = tested on: [2-^3H]mannose-labeled CPAE glycoproteins; experiment: Precipitation of mannose-labeled glycoproteins and cross-binding; design: species or system bovine
Protocol: Calf pulmonary artery endothelial cells (CPAE) cells were labeled with [2-^3H] mannose at 20 μCi/ml for 24 h in alpha MEM containing 10% fetal bovine serum. Cells were harvested by trypsinization, washed thrice in PBS, and lysed in PBS containing protease inhibitors and 0.5% NP40. Protein-rich lysates were prepared by ultrafiltration on YM10 membranes. Purified S100A8/A9 or annexin I proteins were immobilized on Affigel-10, and mixed with the labeled glycoproteins from CPAE cells in 10 mM HEPES buffer pH 7.5 containing 150 mM NaCl, 5 mM KCl, 1.2 mM MgCl2 and 1.3 mM CaCl2 after preclearing the lysates with BSA-Affigel 10. For immunoprecipitations using mAbGB3.1, lysates were precleared with normal mouse IgG-protein G beads and then incubated with Protein G coupled to mAbGB3.1 IgG in PBS. After overnight incubation at 4° C., the individual pellets were washed free of all unbound label until no more counts appeared in the washes, and the radioactivity associated with the pellets was measured.
For cross-binding, label associated with each pellet was first eluted using high salt (5 M MgCl2, which eluted >70% bound label). The eluates were repeatedly desalted on YM10 membranes and resuspended in the respective buffers. Label eluted from mAbGB3.1 gels was mixed with immobilized S100A8/A9 or annexin I and vice versa. Again, after overnight incubation at 4° C., the individual pellets were washed free of all unbound label and counted. […] In comparison, immobilized annexin I precipitated only about 2-3% of mannose labeled glycoproteins from endothelial cells (data not shown).

[3] = tested on: 0.3 M asialo-COO^− glycopeptide-BSA neoglycoproteins; experiment: ELISA binding of purified proteins to immobilized carboxylated bovine lung glycans; conditions: FIG. 19 or data not shown
Protocol: In additional ELISA experiments, 96-well plates were coated with 0.3 M asialo-COO^− glycopeptide-BSA neoglycoproteins (250 ng/well) for 4 h at 37° C. (control wells had BSA alone) and blocked with 3% BSA in PBS overnight. The wells were then incubated with purified human annexin I or S100A8/A9 complexes (as appropriate), in 10 mM HUES buffer pH 7.5 containing 150 mM NaCl, 5 mM KCl, 1.2 mM MgCl2 and 1.3 mM CaCl2, in the absence or presence of varying concentrations of 0.3 M asialo-COO^− glycopeptides or 0.3 M asialo-CONHMe-glycopeptides for 2 h at room temperature. This was followed by incubation with anti-bovine annexin I antibody or anti-human S100A8 or anti-S100A9 for 2 h at room temperature. Wells were then washed and incubated with alkaline phosphatase conjugated goat anti-mouse IgG, followed by development with p-nitrophenyl phosphate substrate.
In this Example, experiments conducted to assess amphoterin binding to COO^− glycopeptide coated plates was assayed as described earlier for annexin I and S100 proteins. In addition, bound protein was detected using anti-amphoterin. mAbGB3.1 binding to sRAGE was assessed by first coating sRAGE on microtiter wells for 4 h at 37° C. After blocking with 3% BSA in PBS overnight, wells were incubated with mAbGB3.1 in the presence and absence of COO^−or CONHMe-glycopeptide and developed as described above.

HUVECs = experiment: Surface binding of iodinated S100A8/A9 to endothelial cells; design: species or system human
Protocol: Human umbilical vein endothelial cells (HUVECs) were grown in Endothelial Cell growth Medium (Cell Applications) at 37° C. in 5% CO2. Cell staining and Western blotting were performed to confirm expression of mAbGB3.1 antigens. HUVECS at passages 3-4 were used in the binding assays. Purified proteins were radioiodinated using Na^125I and Iodo-Beads Iodinating Reagent as per the manufacturer's protocols. Unbound label was removed on a Sephadex G25 column, followed by concentration of the void volume fractions using Centricon10 concentrators.
Cells grown to confluence in 12 well plates and activated with 1 μM PAF for 4 hr. Activated and unactivated cells were washed with cold HBSS and then incubated with 4 nM to 80 nM ^125I-S100A8/A9 in 1 ml of HBSS, or 20 nM labeled complex in the absence and presence of modulators at 4° C. for 2 h. The reaction was stopped by rapid removal of unbound label, and the cells were washed thrice with cold HBSS. They were solubilized in 1 M NaOH followed by addition of an equal volume of 1 M HCl, and the radioactivity associated with the lysates was measured using a gamma counter. […] Panels 2 and 3 show the results for HUVECs incubated with 20 nM labeled complex in the absence or presence of modulators, in 1 ml of HBSS at 4° C. for 2 hours.

RAGE = target: T1, RAGE (Bos taurus, UniProt Q28173); experiment: Binding assays using ^125I amphoterin on immobilized RAGE; design: species or system bovine
T1 construct: from tissue; host or cells: bovine lung (inferred); amphoterin from baculovirus-infected insect cells
T1 sequence (Q28173 23-416): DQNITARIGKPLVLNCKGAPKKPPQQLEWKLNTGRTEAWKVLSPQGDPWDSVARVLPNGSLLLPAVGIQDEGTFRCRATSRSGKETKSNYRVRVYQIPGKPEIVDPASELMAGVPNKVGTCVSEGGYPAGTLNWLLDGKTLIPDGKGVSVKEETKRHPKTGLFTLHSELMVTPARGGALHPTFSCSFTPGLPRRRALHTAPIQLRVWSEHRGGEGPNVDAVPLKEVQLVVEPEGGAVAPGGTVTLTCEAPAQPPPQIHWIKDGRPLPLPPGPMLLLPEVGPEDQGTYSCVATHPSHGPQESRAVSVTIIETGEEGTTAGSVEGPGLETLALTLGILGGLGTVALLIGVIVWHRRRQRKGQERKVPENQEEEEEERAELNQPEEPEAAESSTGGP
Protocol: Amphoterin was radioiodinated using Na ^125I and Iodo-Beads Iodinating Reagent (Pierce) to a specific activity of 5×10^3 cpm/ng protein. Saturation binding experiments were done by a slight modification of the method of Hori et al (Hori at al., J. Biol. Chem., 270:25752-61 [1995]). Briefly, purified RAGE was immobilized on microliter wells and the wells blocked with 3% BSA. Wells were incubated at 4° C. overnight with increasing concentrations of ^125I amphoterin in HBSS containing 0.1% BSA in the presence or absence of desialylated carboxylate-enriched (COO^−) or CONHMe bovine lung glycopeptides, or 20 μg/ml mAbGB3.1 or an unrelated anti-carbohydrate monoclonal antibody, or 100 fold excess of unlabeled amphoterin. Binding was also tested on RAGE deglycosylated by PNGase F under non-denaturing conditions. Wells were washed, bound amphoterin was eluted with 2 M NaCl, and radioactivity was measured using a gamma counter. Non-linear regression analysis was done using the GraphPad Prism program.

[4] = target: [2-3H]mannose-labeled CPAE glycoproteins; experiment: precipitation of [2-3H]mannose-labeled CPAE glycoproteins by annexin I on Affigel-10 (data not shown)

## S100A8 homodimer: cross-linked S100A8 homodimer from human neutrophil extracts
[1]
  depletion from neutrophil extracts after binding to the glycopeptides: depleted

## S100A8/A9 heterodimer: S100A8•S100A9 heterodimer from human neutrophil extracts
[1]
  depletion from neutrophil extracts after binding to the glycopeptides: depleted

## S100A8/A9 heterotrimer: (S100A8)2•S100A9 heterotrimer from human neutrophil extracts
[1]
  depletion from neutrophil extracts after binding to the glycopeptides: depleted

## S100A8/A9: heteromeric S100A8/S100A9 complex purified from human neutrophil cytosol
[2]; primary binding
  % Bound Radioactivity (mean ± SD): 9% and 8.7 ± 0.5%
[2]; primary binding to mAbGB3.1, eluted label rebinding to S100A8/A9
  % Bound Radioactivity (mean ± SD): 31.5 ± 0.2%
[2]; primary binding to mAbGB3.1, eluted label rebinding to S100A8/A9, listed as S100A8/A9 complex
  % Bound Radioactivity (mean ± SD): about one-third
[2]; primary binding, listed as S100A8/A9 complex
  % Bound Radioactivity (mean ± SD): 9%
[3]
  binding to immobilized carboxylated vs neutralized glycans: same specificity of binding
HUVECs; unlabeled ligand, 20 nM labeled complex, PAF-activated HUVECs, FIG. 20 Panel B, read-out: half maximal competition of specific binding of ^125I-S100A8/A9
  IC50: ~500 nM

## ^125I-S100A8/A9: purified S100A8/A9 radioiodinated using Na^125I
HUVECs; 4 nM to 80 nM, 4° C. 2 h, FIG. 20 Panel A
  binding on PAF-activated HUVECs: dose-dependent and saturable binding
HUVECs; data not shown
  binding to unactivated cells, less than to PAF-activated cells: 2 fold

B1: amphoterin: baculovirus expressed rat amphoterin, neurite growth-promoting protein, ligand of RAGE (protein)
chain: GKGDPKKPRGKMSSYAFFVQTCREEHKKKHPDASVNFSEFSKKCSERWKTMSAKEKGKFEDMAKADKARYEREMKTYIPPKGETKKKFKDPNAPKRPPSAFFLFCSEYRPKIKGEHPGLSIGDVAKKLGEMWNNTAADDKQPYEKKAAKLKEKYEKDIAAYRAKGKPDAAKKGVVKAEKSKKKKEEEDDEEDEEDEEEEEEEEDEDEEEDDDDE
RAGE; in presence of soluble COO^− glycopeptides
  Bmax: approximately 34.7±3.7 fmole/well
RAGE; native purified RAGE
  Bmax: approximately 52.7±4.3 fmole/well
[3]
  binding to immobilized carboxylated vs neutralized glycans: carboxylate dependent manner

B2: annexin I: human annexin I, from neutrophil lysates or recombinant full length from E. coli (protein, UniProt P04083 2-346, looked up)
Annexin A1: AMVSEFLKQAWFIENEEQEYVQTVKSSKGGPGSAVSPYPTFNPSSDVAALHKAIMVKGVDEATIIDILTKRNNAQRQQIKAAYLQETGKPLDETLKKALTGHLEEVVLALLKTPAQFDADELRAAMKGLGTDEDTLIEILASRTNKEIRDINRVYREELKRDLAKDITSDTSGDFRNALLSLAKGDRSEDFGVNEDLADSDARALYEAGERRKGTDVNVFNTILTTRSYPQLRRVFQKYTKYSKHDMNKVLDLELKGDIEKCLTAIVKCATSKPAFFAEKLHQAMKGVGTRHKALIRIMVSRSEIDMNDIKAFYQKMYGISLCQAILDETKGDYEKILVALCGGN
[2]; primary binding
  % Bound Radioactivity (mean ± SD): 2-3%
[3]
  binding to immobilized carboxylated vs neutralized glycans: bound
[1]; intact (37 kDa) protein, FIG. 16 lane 2
  depletion from the neutrophil preparations after binding to carboxylate-enriched glycopeptides: > 90%

B3: recombinant full-length human annexin I (E. coli BL21(DE3), pET23b) (protein)
chain: MAMVSEFLKQAWFIENEEQEYVQTVKSSKGGPGSAVSPYPTFNPSSDVAALHKAIMVKGVDEATIIDILTKRNNAQRQQIKAAYLQETGKPLDETLKKALTGHLEEVVLALLKTPAQFDADELRAAMKGLGTDEDTLIEILASRTNKEIRDINRVYREELKRDLAKDITSDTSGDFRNALLSLAKGDRSEDFGVNEDLADSDARALYEAGERRKGTDVNVFNTILTTRSYPQLRRVFQKYTKYSKHDMNKVLDLELKGDIEKCLTAIVKCATSKPAFFAEKLHQAMKGVGTRHKALIRIMVSRSEIDMNDIKAFYQKMYGISLCQAILDETKGDYEKILVALCGGN
[4]
  % of mannose labeled glycoproteins precipitated: 2 to 3%
